Like-named read-outs stand apart in the source and are kept apart here.
Biological target: T1, α7 nicotinic ACh receptor ion channel expressed in mammalian HEK 293 cells (Rattus norvegicus, UniProt Q05941)
T1 construct: expressed in transfected cells
Experiment: Ca2+-sensitive fluorescence-based assay for α7 nicotinic acetylcholine receptor channel function (FLIPR), agonist activity
Type: cell-based
Procedure: II) A Ca^2+-Sensitive, Fluorescence-Based Assay α-7 for Nicotinic Acetylcholine Receptor Channel Function in Mammalian Cells (“FLIPR”).
Lead compounds are evaluated for agonist activity at the α7 nicotinic ACh receptor ion channel expressed in mammalian HEK 293 cells. Agonist potency and efficacy values are determined from kinetic fluorescence Ca^2+ influx measurements made using a 384 well FLIPR (Fluorescence Image Plate Reader). The utility of fluorescent indicators for measuring changes in intracellular divalent cation concentrations, particularly Ca^2+, for drug discovery endeavors is well documented (Rudiger, R., et al., Nature Reviews, 2003, 4:579-586; Gonzalez J. E., et al., Receptors and Channels, 2002, 8:283-295). In this assay, channel expressing HEK cell lines seeded in 384 well assay plates are loaded with a membrane permeant fluorescent Ca^2+ indicator dye, whose 510 nm green emission signal increases in response to elevation of intracellular Ca^2+ concentration. The basal fluorescence from the cells is monitored in real time, followed by the acute addition of test compounds. If the compound is an agonist at any of the non-selective cation channels, the latter open and allow the movement of extracellular Ca^2+ ions into the cell cytoplasm, where they bind to the Ca^2+ indicator dye, and produce an increase in fluorescence output signal, which is detected by a cooled CCD imaging camera.
Reagents: The acetomethoxy (AM) ester of the Ca^2+ indicator dye Fluo-4 was obtained from InVitrogen, (Carlsbad, Calif.). Acetylcholine and all buffer constituents were purchased from Sigma Chemical Company, St. Louis, Mo. G418 and Minimal Essential Medium were purchased from InVitrogen Life Technologies, Carlsbad, Calif. Fetal bovine serum was purchased from (InVitrogen, Carlsbad, Calif.).
HEK-293 cells were grown in Minimal Essential Medium containing 10% (v/v) fetal bovine serum at 37° C. in a 5% CO2 incubator. HEK-293 cells stably expressing the ion channels were grown in the same medium with the addition of 500 μg/ml G418.
HEK-293 cells expressing the ion channels of interest were plated in 384 well, black-walled, clear-bottomed, poly-D-lysine coated plates at a density of ˜20,000 cells/well in 20 μl of Minimal Essential Medium containing 10% (v/v) fetal bovine serum and incubated for 2 days at 29° C. in a 5% CO2 incubator. Prior to assay, cells were loaded with the Fluo-4 AM ester. Cell loading was accomplished by removing the culture medium and replacing it with 30 μl/well of the AM ester of the dye (5 μM) mixed with Hanks Balanced Salt Solution (#14175-095) containing 20 mM HEPES, 2.5 mM probenecid, 0.5 mM CaCl2, 1 mM MgCl2 and 10 μM atropine. Dye loading was allowed to proceed for 90 minutes at room temperature at which time the dye loading solution was removed and replaced with 40 μl/well of Hanks buffer. Cells loaded with dye were loaded onto a FLIPR384 (Molecular Devices, Sunnyvale, Calif.). Fluo-4 dye was excited using the 488 nm line of an argon laser. Emission was filtered using a 540+/−30 nm bandpass filter. For evaluation of the effects of test compounds using the Ca^2+ flux assay, compounds to be tested were provided in assay ready plates. For nicotinic receptor ion channel expressing cells, the assay was initiated by the addition of 20 μl/well of Hanks buffer containing test compounds. For all assays, data were collected at 1 Hz for 10 seconds (baseline), at which time the compound containing stimulus buffers are added, and further measurements collected at 0.33 Hz for 3 min.
The statistical robustness of the nicotinic receptor Ca^2+ flux assays is determined from blanks and totals wells. The totals wells define maximal channel activation for each compound test plate (Maximum efficacious dose of acetylcholine), and the blanks wells which contain matched DMSO only, define zero channel activation. […]

[1] = FLIPR α7 (EC50, nM), HEK 293 cells, Ca2+ flux, agonist potency
[2] = FLIPR α7 activity rating (EC50, nM), HEK 293 cells, Ca2+ flux, class rating of EC50

T1 sequence (Q05941 23-502): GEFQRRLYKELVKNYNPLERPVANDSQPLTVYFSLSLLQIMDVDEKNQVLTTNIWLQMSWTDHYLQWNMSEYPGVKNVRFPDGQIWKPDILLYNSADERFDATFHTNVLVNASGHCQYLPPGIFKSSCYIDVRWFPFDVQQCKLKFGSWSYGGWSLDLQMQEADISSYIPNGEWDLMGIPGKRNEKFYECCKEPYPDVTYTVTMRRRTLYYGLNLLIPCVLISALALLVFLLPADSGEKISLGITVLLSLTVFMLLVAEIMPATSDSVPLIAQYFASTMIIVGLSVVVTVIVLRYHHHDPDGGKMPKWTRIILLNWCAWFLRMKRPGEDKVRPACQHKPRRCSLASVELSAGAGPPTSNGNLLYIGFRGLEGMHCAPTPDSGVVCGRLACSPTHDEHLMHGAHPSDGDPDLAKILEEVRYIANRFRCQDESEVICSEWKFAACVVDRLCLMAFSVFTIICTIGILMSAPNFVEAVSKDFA

Row | Structure (SMILES) | EC50 [1] | EC50 [2] | EC50
1 | c1ccc(-c2nc3n(n2)C[C@@]2(CN4CCC2CC4)O3)cc1 [Example 14b, (R)-2-Phenyl-6H-1′-azaspiro[oxazolo[3,2-b][1,2,4]triazole-5,3′-bicyclo[2.2.2]octane]] | 4.1 nM | < 100 nM | –
2 | Clc1cccc2nc3n(c12)C[C@]1(CN2CCC1CC2)O3 (single isomer, unassigned) [Example 9d] | 3950 nM | 1000 to 100000 nM | –
3 | Cc1cccc2c1nc1n2C[C@]2(CN3CCC2CC3)O1 (single isomer, unassigned) [Example 10a] | 263 nM | 100 to 1000 nM | –
4 | COc1ccc(-c2cccc3c2nc2n3C[C@]3(CN4CCC3CC4)O2)cc1 (single isomer, unassigned) [Example 12a] | > 100000 nM | > 1e+06 nM | –
5 | Clc1nc2n(c1Cl)C[C@@]1(CN3CCC1CC3)O2 [Example 2b, (R)-5,6-Dichloro-3H-1′-azaspiro[imidazo[2,1-b]oxazole-2,3′-bicyclo[2.2.2]octane]] | 14.2 nM | < 100 nM | –
6 | Cc1cc2nc3n(c2cc1C)C[C@]1(CN2CCC1CC2)O3 (single isomer, unassigned) [Example 5b] | > 100000 nM | > 1e+06 nM | –
7 | c1cncc(-c2ccc3c(c2)nc2n3C[C@]3(CN4CCC3CC4)O2)c1 (single isomer, unassigned) [Example 13a] | 2990 nM | 1000 to 100000 nM | –
8 | Clc1cnc2c(c1)nc1n2CC2(CN3CCC2CC3)O1 (racemic) [Example 20, 7-Chloro-3H-1′-azaspiro[oxazolo[2′,3′:2,3]imidazo[4,5-b]pyridine-2,3′-bicyclo[2.2.2]octane]] | 66 nM | < 100 nM | –
9 | Clc1nc2n(n1)CC1(CN3CCC1CC3)O2 (racemic) [Example 16, 2-Chloro-6H-1′-azaspiro[oxazolo[3,2-b][1,2,4]triazole-5,3′-bicyclo[2.2.2]octane]] | 174 nM | 100 to 1000 nM | –
10 | FC(F)(F)c1ccc2nc3n(c2c1)C[C@@]1(CN2CCC1CC2)O3 (single isomer, unassigned) [Example 8b] | – | 1000 to 100000 nM | 7190 nM
11 | Cc1ccc2nc3n(c2c1)C[C@@]1(CN2CCC1CC2)O3 (single isomer, unassigned) [Example 7a] | 35 nM | < 100 nM | –
12 | Cc1cccc2c1nc1n2C[C@@]2(CN3CCC2CC3)O1 (single isomer, unassigned) [Example 10b] | 9.1 nM | < 100 nM | –
13 | FC(F)(F)c1ccc2nc3n(c2c1)C[C@]1(CN2CCC1CC2)O3 (single isomer, unassigned) [Example 8c] | – | > 1e+06 nM | > 100000 nM
14 | Clc1cccc2c1nc1n2C[C@@]2(CN3CCC2CC3)O1 (single isomer, unassigned) [Example 9b] | 24.6 nM | < 100 nM | –
15 | Cc1c(Br)nc2n1CC1(CN3CCC1CC3)O2 (racemic) [Example 3b, 6-Bromo-5-methyl-3H-1′-azaspiro[imidazo[2,1-b]oxazole-2,3′-bicyclo[2.2.2]octane]] | 71.4 nM | < 100 nM | –
16 | c1cncc(-c2ccc3c(c2)nc2n3C[C@@]3(CN4CCC3CC4)O2)c1 (single isomer, unassigned) [Example 13b] | 634 nM | 100 to 1000 nM | –
17 | Brc1cnc2c(c1)nc1n2CC2(CN3CCC2CC3)O1 (racemic) [Example 19, 7-Bromo-3H-1′-azaspiro[oxazolo[2′,3′:2,3]imidazo[4,5-b]pyridine-2,3′-bicyclo[2.2.2]octane]] | 49 nM | < 100 nM | –
18 | Cc1cc2nc3n(c2cc1C)C[C@@]1(CN2CCC1CC2)O3 (single isomer, unassigned) [Example 5a] | 65.3 nM | < 100 nM | –
19 | Cc1ccc2c(c1)nc1n2C[C@@]2(CN3CCC2CC3)O1 (single isomer, unassigned) [Example 7b] | 5.1 nM | < 100 nM | –

Row | Structure (SMILES) | EC50 [1] | EC50 [2] | EC50
20 | c1ccc2c(c1)nc1n2C[C@@]2(CN3CCC2CC3)O1 (single isomer, unassigned) [Example 4a] | 13.6 nM | < 100 nM | –
21 | Brc1nc2n(c1Br)C[C@]1(CN3CCC1CC3)O2 (single isomer, unassigned) [Example 1a] | 5690 nM | 1000 to 100000 nM | –
22 | COc1ccc2c(c1)nc1n2C[C@@]2(CN3CCC2CC3)O1 (single isomer, unassigned) [Example 6b] | 10.3 nM | < 100 nM | –
23 | FC(F)(F)c1cccc2c1nc1n2C[C@@]2(CN3CCC2CC3)O1 (single isomer, unassigned) [Example 11b] | 22 nM | < 100 nM | –
24 | Clc1nc2n(c1Cl)C[C@]1(CN3CCC1CC3)O2 [Example 2a, (S)-5,6-Dichloro-3H-1′-azaspiro[imidazo[2,1-b]oxazole-2,3′-bicyclo[2.2.2]octane]] | 1500 nM | 1000 to 100000 nM | –
25 | c1ccc(-c2cn3c(n2)O[C@]2(CN4CCC2CC4)C3)cc1 [Example 21b, (R)-6-Phenyl-3H-1′-azaspiro[imidazo[2,1-b]oxazole-2,3′-bicyclo[2.2.2]octane]] | 53 nM | < 100 nM | –
26 | Clc1cccc2nc3n(c12)C[C@@]1(CN2CCC1CC2)O3 (single isomer, unassigned) [Example 9c] | 347 nM | 100 to 1000 nM | –
27 | FC(F)(F)c1cccc2c1nc1n2C[C@]2(CN3CCC2CC3)O1 (single isomer, unassigned) [Example 11a] | 32500 nM | 1000 to 100000 nM | –
28 | Cc1nc2n(c1Br)CC1(CN3CCC1CC3)O2 (racemic) [Example 3a, 5-Bromo-6-methyl-3H-1′-azaspiro[imidazo[2,1-b]oxazole-2,3′-bicyclo[2.2.2]octane]] | 36.1 nM | < 100 nM | –
29 | COc1ccc(-c2cccc3c2nc2n3C[C@@]3(CN4CCC3CC4)O2)cc1 (single isomer, unassigned) [Example 12b] | 28 nM | < 100 nM | –
30 | c1ccc(-c2nc3n(n2)C[C@]2(CN4CCC2CC4)O3)cc1 [Example 14a, (S)-2-Phenyl-6H-1′-azaspiro[oxazolo[3,2-b][1,2,4]triazole-5,3′-bicyclo[2.2.2]octane]] | 437 nM | 100 to 1000 nM | –
31 | COc1ccc2c(c1)nc1n2C[C@]2(CN3CCC2CC3)O1 (single isomer, unassigned) [Example 6a] | 1430 nM | 1000 to 100000 nM | –
32 | c1ccc2c(c1)nc1n2C[C@]2(CN3CCC2CC3)O1 (single isomer, unassigned) [Example 4b] | 6660 nM | 1000 to 100000 nM | –
33 | Brc1nc2n(c1Br)C[C@@]1(CN3CCC1CC3)O2 (single isomer, unassigned) [Example 1b] | 19.6 nM | < 100 nM | –
34 | Cc1nc2c(cc1Br)nc1n2CC2(CN3CCC2CC3)O1 (racemic) [Example 18, 7-Bromo-6-methyl-3H-1′-azaspiro[oxazolo[2′,3′:2,3]imidazo[4,5-b]pyridine-2,3′-bicyclo[2.2.2]octane]] | 967 nM | 100 to 1000 nM | –
35 | c1ccc(-c2cn3c(n2)O[C@@]2(CN4CCC2CC4)C3)cc1 [Example 21a, (S)-6-Phenyl-3H-1′-azaspiro[imidazo[2,1-b]oxazole-2,3′-bicyclo[2.2.2]octane]] | 10 nM | < 100 nM | –
36 | FC(F)(F)c1ccc2c(c1)nc1n2C[C@]2(CN3CCC2CC3)O1 (single isomer, unassigned) [Example 8d] | 1330 nM | 1000 to 100000 nM | –
37 | FC(F)(F)c1ccc2c(c1)nc1n2C[C@@]2(CN3CCC2CC3)O1 (single isomer, unassigned) [Example 8a] | 4.7 nM | < 100 nM | –
38 | Clc1cccc2c1nc1n2C[C@]2(CN3CCC2CC3)O1 (single isomer, unassigned) [Example 9a] | 12100 nM | 1000 to 100000 nM | –

From US10174052B2, “Quinuclidine compounds as α-7 nicotinic acetylcholine receptor ligands” (BRISTOL-MYERS SQUIBB COMPANY, priority 2014, dated 2019)
